Source: ChEMBL document CHEMBL1201862, “PubChem BioAssay data set” (2004)
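In this assay, cells in 96-well plates receive the compound at five concentrations for 48 hours. Endpoints are linearly interpolated between the surrounding concentrations. Abbreviation: GI50, concentration required for 50% inhibition of growth.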 The source made the active and inactive calls. No stated cut-off is given here; in the data, active = GI50 up to about 1.1 µM and inactive = higher.

Legend:
Experiment in all cases: inhibition of tumour cell growth, NCI panel, 48 h
M19-MEL = tested on: M19-MEL
KM-20L2 = tested on: KM-20L2
K562 = tested on: K562
HOP-62 = tested on: HOP-62
HL-60 = tested on: HL-60
HOP-18 = tested on: HOP-18
COLO 205 = tested on: COLO 205
TK-10 = tested on: TK-10
UO-31 = tested on: UO-31
M14 = tested on: M14
SK-MEL-2 = tested on: SK-MEL-2
ACHN = tested on: ACHN
CCRF-CEM = tested on: CCRF-CEM
NCI-H23 = tested on: NCI-H23
SW-620 = tested on: SW-620
OVCAR-8 = tested on: OVCAR-8
OVCAR-3 = tested on: OVCAR-3
SK-MEL-28 = tested on: SK-MEL-28
SNB-19 = tested on: SNB-19
SK-OV-3 = tested on: SK-OV-3
RPMI-8226 = tested on: RPMI-8226
Malme-3M = tested on: Malme-3M
A549 = tested on: A549
786-0 = tested on: 786-0
CAKI-1 = tested on: CAKI-1
KM12 = tested on: KM12
RXF 393 = tested on: RXF 393
DMS-114 = tested on: DMS-114
LOX IMVI = tested on: LOX IMVI
IGROV-1 = tested on: IGROV-1
SF-539 = tested on: SF-539
NCI-H460 = tested on: NCI-H460
U-251 = tested on: U-251
HT-29 = tested on: HT-29
OVCAR-5 = tested on: OVCAR-5
MOLT-4 = tested on: MOLT-4
SN12C = tested on: SN12C
XF498 = tested on: XF498
RXF 631 = tested on: RXF 631
UACC-62 = tested on: UACC-62
OVCAR-4 = tested on: OVCAR-4
HCT-15 = tested on: HCT-15
UACC-257 = tested on: UACC-257
SF-295 = tested on: SF-295
DMS-273 = tested on: DMS-273
SK-MEL-5 = tested on: SK-MEL-5
A498 = tested on: A498
LXFL 529 = tested on: LXFL 529
SNB-75 = tested on: SNB-75
SF-268 = tested on: SF-268
EKVX = tested on: EKVX
NCI-H522 = tested on: NCI-H522
DLD-1 = tested on: DLD-1
HCC 2998 = tested on: HCC 2998
NCI-H226 = tested on: NCI-H226
HOP-92 = tested on: HOP-92
SNB-78 = tested on: SNB-78
SR = tested on: SR
HCT-116 = tested on: HCT-116

With `C=CCN(N=O)C(=O)N(CCC)CCCC(NC(C)=O)C(=O)NCc1ccccc1` (stereo not drawn) the GI50 (M19-MEL) was > 100 µM (inactive), the GI50 (KM-20L2) was > 100 µM (inactive) and the GI50 (K562) was > 100 µM (inactive). The GI50 (HOP-62) was > 100 µM (inactive), the GI50 (HL-60) was > 100 µM (inactive) and the GI50 (HOP-18) was > 100 µM (inactive). For the same compound, the GI50 (COLO 205) was > 100 µM (inactive), the GI50 (TK-10) was > 100 µM (inactive) and the GI50 (UO-31) was > 100 µM (inactive). The GI50 (M14) was > 100 µM (inactive), the GI50 (SK-MEL-2) was > 100 µM (inactive) and the GI50 (ACHN) was > 100 µM (inactive). The GI50 (CCRF-CEM) was > 100 µM (inactive), the GI50 (NCI-H23) was > 100 µM (inactive) and the GI50 (SW-620) was > 100 µM (inactive). The GI50 (OVCAR-8) was > 100 µM (inactive), the GI50 (OVCAR-3) was > 100 µM (inactive) and the GI50 (SK-MEL-28) was > 100 µM (inactive). The GI50 (SNB-19) was > 100 µM (inactive), the GI50 (SK-OV-3) was > 100 µM (inactive) and the GI50 (RPMI-8226) was > 100 µM (inactive). The GI50 (Malme-3M) was > 100 µM (inactive), the GI50 (A549) was > 100 µM (inactive) and the GI50 (786-0) was > 100 µM (inactive). For the same compound, the GI50 (CAKI-1) was > 100 µM (inactive), the GI50 (KM12) was > 100 µM (inactive) and the GI50 (RXF 393) was > 100 µM (inactive). For the same compound, the GI50 (DMS-114) was > 100 µM (inactive), the GI50 (LOX IMVI) was > 100 µM (inactive) and the GI50 (IGROV-1) was > 100 µM (inactive). The GI50 (SF-539) was > 100 µM (inactive), the GI50 (NCI-H460) was > 100 µM (inactive) and the GI50 (U-251) was > 100 µM (inactive). The GI50 (HT-29) was > 100 µM (inactive), the GI50 (OVCAR-5) was > 100 µM (inactive) and the GI50 (MOLT-4) was > 100 µM (inactive). For the same compound, the GI50 (SN12C) was > 100 µM (inactive), the GI50 (XF498) was > 100 µM (inactive) and the GI50 (RXF 631) was > 100 µM (inactive). The GI50 (UACC-62) was > 100 µM (inactive), the GI50 (OVCAR-4) was > 100 µM (inactive) and the GI50 (HCT-15) was > 100 µM. For the same compound, the GI50 (UACC-257) was > 100 µM (inactive), the GI50 (SF-295) was > 100 µM (inactive) and the GI50 (DMS-273) was > 100 µM (inactive). For the same compound, the GI50 (SK-MEL-5) was > 100 µM (inactive), the GI50 (A498) was > 100 µM (inactive) and the GI50 (LXFL 529) was > 100 µM (inactive). The GI50 (SNB-75) was > 100 µM (inactive), the GI50 (SF-268) was > 100 µM (inactive) and the GI50 (EKVX) was > 100 µM (inactive). The GI50 (NCI-H522) was > 100 µM (inactive).
With `COc1ccc(NC(=O)NS(=O)(=O)c2ccc(C)cc2)nn1` the GI50 (DLD-1) was > 100 µM (inactive), the GI50 (M19-MEL) was > 100 µM (inactive) and the GI50 (KM-20L2) was > 100 µM (inactive). The GI50 (HCC 2998) was > 100 µM (inactive), the GI50 (K562) was > 100 µM (inactive) and the GI50 (HOP-62) was > 100 µM (inactive). For the same compound, the GI50 (HL-60) was > 100 µM (inactive), the GI50 (HOP-18) was > 100 µM (inactive) and the GI50 (COLO 205) was > 100 µM (inactive). The GI50 (TK-10) was > 100 µM (inactive), the GI50 (UO-31) was > 100 µM (inactive) and the GI50 (M14) was > 100 µM (inactive). For the same compound, the GI50 (SK-MEL-2) was > 100 µM (inactive), the GI50 (ACHN) was > 100 µM (inactive) and the GI50 (CCRF-CEM) was > 100 µM (inactive). For the same compound, the GI50 (NCI-H23) was > 100 µM (inactive), the GI50 (SW-620) was > 100 µM (inactive) and the GI50 (OVCAR-8) was > 100 µM (inactive). The GI50 (OVCAR-3) was > 100 µM (inactive), the GI50 (SK-MEL-28) was > 100 µM (inactive) and the GI50 (SNB-19) was > 100 µM (inactive). The GI50 (SK-OV-3) was > 100 µM (inactive), the GI50 (RPMI-8226) was > 100 µM (inactive) and the GI50 (Malme-3M) was > 100 µM (inactive). The GI50 (A549) was > 100 µM (inactive), the GI50 (786-0) was > 100 µM (inactive) and the GI50 (CAKI-1) was > 100 µM (inactive). The GI50 (KM12) was > 100 µM (inactive), the GI50 (DMS-114) was > 100 µM (inactive) and the GI50 (LOX IMVI) was > 100 µM (inactive). For the same compound, the GI50 (NCI-H226) was > 100 µM (inactive), the GI50 (IGROV-1) was > 100 µM (inactive) and the GI50 (SF-539) was > 100 µM (inactive). The GI50 (NCI-H460) was > 100 µM (inactive), the GI50 (U-251) was > 100 µM (inactive) and the GI50 (HT-29) was > 100 µM (inactive). The GI50 (OVCAR-5) was > 100 µM (inactive), the GI50 (MOLT-4) was > 100 µM (inactive) and the GI50 (SN12C) was > 100 µM (inactive). The GI50 (XF498) was > 100 µM (inactive), the GI50 (RXF 631) was > 100 µM (inactive) and the GI50 (UACC-62) was > 100 µM (inactive). The GI50 (OVCAR-4) was > 100 µM (inactive), the GI50 (HCT-15) was > 100 µM and the GI50 (UACC-257) was > 100 µM (inactive). The GI50 (SF-295) was > 100 µM (inactive), the GI50 (HOP-92) was > 100 µM (inactive) and the GI50 (DMS-273) was > 100 µM (inactive). The GI50 (SK-MEL-5) was > 100 µM (inactive), the GI50 (A498) was > 100 µM (inactive) and the GI50 (LXFL 529) was > 100 µM (inactive). The GI50 (SNB-75) was > 100 µM (inactive), the GI50 (SF-268) was > 100 µM (inactive) and the GI50 (EKVX) was > 100 µM (inactive). The GI50 (NCI-H522) was > 100 µM (inactive) and the GI50 (SNB-78) was > 100 µM (inactive).
`Cc1ns/c(=N\C(=S)N(C)C)n1C` was tested, and the GI50 (DLD-1) was > 100 µM (inactive), the GI50 (KM-20L2) was > 100 µM (inactive) and the GI50 (HCC 2998) was > 100 µM (inactive). The GI50 (K562) was > 100 µM (inactive), the GI50 (HOP-62) was > 100 µM (inactive) and the GI50 (HL-60) was > 100 µM (inactive). For the same compound, the GI50 (HOP-18) was > 100 µM (inactive), the GI50 (TK-10) was > 100 µM (inactive) and the GI50 (UO-31) was > 100 µM (inactive). The GI50 (M14) was > 100 µM (inactive), the GI50 (SK-MEL-2) was > 100 µM (inactive) and the GI50 (ACHN) was > 100 µM (inactive). For the same compound, the GI50 (CCRF-CEM) was > 100 µM (inactive), the GI50 (NCI-H23) was > 100 µM (inactive) and the GI50 (SW-620) was > 100 µM (inactive). The GI50 (OVCAR-8) was > 100 µM (inactive), the GI50 (SR) was > 100 µM (inactive) and the GI50 (SK-MEL-28) was > 100 µM (inactive). For the same compound, the GI50 (SNB-19) was > 100 µM (inactive), the GI50 (SK-OV-3) was > 100 µM (inactive) and the GI50 (RPMI-8226) was > 100 µM (inactive). For the same compound, the GI50 (Malme-3M) was > 100 µM (inactive), the GI50 (A549) was > 100 µM (inactive) and the GI50 (786-0) was > 100 µM (inactive). For the same compound, the GI50 (CAKI-1) was > 100 µM (inactive), the GI50 (KM12) was > 100 µM (inactive) and the GI50 (RXF 393) was > 100 µM (inactive). For the same compound, the GI50 (DMS-114) was > 100 µM (inactive), the GI50 (NCI-H226) was > 100 µM (inactive) and the GI50 (IGROV-1) was > 100 µM (inactive). The GI50 (SF-539) was > 100 µM (inactive), the GI50 (NCI-H460) was > 100 µM (inactive) and the GI50 (U-251) was > 100 µM (inactive). The GI50 (HT-29) was > 100 µM (inactive), the GI50 (OVCAR-5) was > 100 µM (inactive) and the GI50 (MOLT-4) was > 100 µM (inactive). The GI50 (SN12C) was > 100 µM (inactive), the GI50 (XF498) was > 100 µM (inactive) and the GI50 (RXF 631) was > 100 µM (inactive). For the same compound, the GI50 (UACC-62) was > 100 µM (inactive), the GI50 (OVCAR-4) was > 100 µM (inactive) and the GI50 (HCT-15) was > 100 µM. The GI50 (UACC-257) was > 100 µM (inactive), the GI50 (SF-295) was > 100 µM (inactive) and the GI50 (HOP-92) was > 100 µM (inactive). For the same compound, the GI50 (DMS-273) was > 100 µM (inactive), the GI50 (SK-MEL-5) was > 100 µM (inactive) and the GI50 (A498) was > 100 µM (inactive). The GI50 (LXFL 529) was > 100 µM (inactive), the GI50 (SNB-75) was > 100 µM (inactive) and the GI50 (HCT-116) was > 100 µM (inactive). The GI50 (SF-268) was > 100 µM (inactive), the GI50 (EKVX) was > 100 µM (inactive) and the GI50 (NCI-H522) was > 100 µM (inactive). For the same compound, the GI50 (SNB-78) was > 100 µM (inactive).
